The text below walks through data of PubChem BioAssay (NCI).

Among the test systems are A498 renal; ACHN renal; HOP-92 NSCLC; HT29 colon; K-562 leukemia; NCI-H226 lung; NCI-H23 lung; NCI-H522 lung; UACC-257 melanoma; UO-31 renal.
What all share (test): NCI anticancer screen, dose series, 48 h

Each structure is given as a SMILES string.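 Protocol summary: plate cells (96-well), add compound at 5 concentrations, incubate 48 h, interpolate endpoints linearly. At the GI50, growth is halved. At the TGI there is no net growth.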 Some results are limits rather than exact numbers.

Regarding `COc1ccc(N=Cc2c(O)ccc3c2oc2cc(Cl)c(O)c(Cl)c23)cc1`, the GI50 was 14.5 µM in the test on A498 renal; 6.22 µM with ACHN renal; 6.09 µM in the test on HOP-92 NSCLC; 16.2 µM with HT29 colon; 5.63 µM in the test with K-562 leukemia; 13.7 µM in the test with NCI-H226 lung. Besides, the GI50 with NCI-H23 lung was 12.2 µM; in the test with NCI-H522 lung, 9.61 µM; with UACC-257 melanoma, 15.9 µM; in the test on UO-31 renal, 5 µM. Further, the TGI was determined as 28.5 µM in the test on A498 renal; 44.4 µM with ACHN renal; 32.6 µM with HOP-92 NSCLC; 37.8 µM in the test on HT29 colon; 49.7 µM in the test with K-562 leukemia; 41.7 µM in the test on NCI-H226 lung. In addition, the TGI in the test with NCI-H23 lung is 42.5 µM; in the test on NCI-H522 lung, 28.2 µM; with UACC-257 melanoma, 48.8 µM; in the test with UO-31 renal, 26.6 µM.

In the case of `CCOC(=O)c1ccccc1OC(=O)NNc1ccccc1`, the GI50 was > 68 µM in the test with A498 renal; 0.587 µM in the test with ACHN renal; 6.92 µM in the test on HOP-92 NSCLC; > 100 µM with HT29 colon; 0.225 µM in the test with K-562 leukemia; > 23.7 µM in the test on NCI-H226 lung. In addition, the GI50 is 30.3 µM in the test with NCI-H23 lung, 1.67 µM in the test on NCI-H522 lung, 5.61 µM in the test on UACC-257 melanoma and 0.535 µM in the test with UO-31 renal. Also, the TGI with A498 renal, in the test on ACHN renal, in the test with HOP-92 NSCLC, in the test on HT29 colon, in the test with K-562 leukemia and with NCI-H226 lung was > 100 µM in each case. The TGI with NCI-H23 lung, with NCI-H522 lung, with UACC-257 melanoma and in the test with UO-31 renal was > 100 µM throughout.

Take `COc1ccc2c(c1)[n+]([O-])c(-c1ccc([N+](=O)[O-])cc1)c(N)[n+]2[O-]`: the TGI in the test on A498 renal, with ACHN renal, in the test with HOP-92 NSCLC, with HT29 colon, in the test on K-562 leukemia and with NCI-H226 lung was > 100 µM throughout. Further, the TGI in the test with NCI-H23 lung is > 100 µM; with NCI-H522 lung, 32.9 µM; with UACC-257 melanoma it was > 100 µM; with UO-31 renal, > 100 µM.

Turning to `C[C@]12CCc3nc(Nc4cccc(O)c4)sc3C1=CC[C@@H]1[C@@H]2CC[C@]2(C)/C(=N\NC(N)=S)CC[C@@H]12`, the GI50 was 3.01 µM with A498 renal; 2.15 µM in the test on ACHN renal; 2.02 µM in the test on HOP-92 NSCLC; 1.52 µM with HT29 colon; 2.15 µM in the test with K-562 leukemia; 5.34 µM with NCI-H226 lung. For the same compound, the GI50 in the test on NCI-H23 lung is 2.78 µM; in the test with NCI-H522 lung, 1.7 µM; in the test with UACC-257 melanoma, 2.12 µM; in the test with UO-31 renal, 1.4 µM. The TGI was 15.5 µM in the test with A498 renal; 6 µM in the test on ACHN renal; 7.6 µM in the test on HOP-92 NSCLC; 3.73 µM in the test with HT29 colon; > 100 µM in the test with K-562 leukemia; 80.7 µM in the test with NCI-H226 lung. Also, the TGI worked out at 8.96 µM with NCI-H23 lung, 3.69 µM in the test with NCI-H522 lung, 6.4 µM in the test on UACC-257 melanoma and 2.83 µM in the test on UO-31 renal.

Turning to `CCOC(=O)[C@@H](C)C[C@H](Cc1ccccc1)NC(=O)c1nc([C@@H](C[C@H](C(C)C)N(C)C(=O)[C@@H](NC(=O)[C@H]2CCCCN2C)C(C)C)OC(C)=O)sc1CCOCc1ccccc1`, the GI50 in the test on A498 renal is 0.0264 µM; in the test with ACHN renal, 0.117 µM; with HOP-92 NSCLC, 0.109 µM; in the test with HT29 colon, 0.0375 µM; in the test with K-562 leukemia it was 0.0358 µM; in the test on NCI-H226 lung, 0.107 µM. For the same compound, the GI50 in the test on NCI-H23 lung was 0.188 µM; with NCI-H522 lung it was 0.029 µM; in the test on UACC-257 melanoma, 1.51 µM; in the test on UO-31 renal, 0.586 µM. Also, the TGI in the test with A498 renal turned out to be 0.417 µM; with ACHN renal, 3.06 µM; in the test with HOP-92 NSCLC it was 2.34 µM; with HT29 colon it was 1.4 µM; in the test on K-562 leukemia, 1.92 µM; with NCI-H226 lung, 1.05 µM. Moreover, the TGI was determined as 5.6 µM in the test with NCI-H23 lung, 0.319 µM with NCI-H522 lung, 4.19 µM with UACC-257 melanoma and 2.24 µM with UO-31 renal.

Regarding `C[C@]12CC[C@@H]3c4cc(OC(F)F)c(O)cc4CC[C@H]3[C@@H]1CC[C@@H]2OS(N)(=O)=O`, the GI50 is 0.321 µM in the test with A498 renal; 0.735 µM in the test on ACHN renal; 6.84 µM in the test on HOP-92 NSCLC; 0.846 µM in the test on HT29 colon; 0.38 µM in the test with K-562 leukemia; 6.64 µM in the test with NCI-H226 lung. The GI50 in the test with NCI-H23 lung was 1.46 µM; in the test on NCI-H522 lung, 0.324 µM; in the test with UACC-257 melanoma, 16.7 µM; with UO-31 renal, 1.11 µM. The TGI in the test on A498 renal is 4.35 µM; with ACHN renal, > 100 µM; with HOP-92 NSCLC, 79.2 µM; in the test with HT29 colon it was 17.8 µM; in the test on K-562 leukemia, > 100 µM; in the test with NCI-H226 lung, 60.5 µM. For the same compound, the TGI in the test on NCI-H23 lung turned out to be 50.8 µM; in the test with NCI-H522 lung it was 18.4 µM; in the test on UACC-257 melanoma, 79.6 µM; in the test with UO-31 renal it was 37.6 µM.

Turning to `COc1cccc(CCC2CCCN(c3cc(C)nc(N)n3)C2)c1` (stereo not given), the GI50 in the test on A498 renal is 0.288 µM; in the test on ACHN renal, 0.625 µM; in the test with HOP-92 NSCLC it was 0.519 µM; in the test with HT29 colon, 0.28 µM; with K-562 leukemia it was 0.259 µM; in the test on NCI-H226 lung, 1.91 µM. Further, the GI50 in the test with NCI-H23 lung was 0.614 µM; in the test with NCI-H522 lung, 0.289 µM; with UACC-257 melanoma, 1.37 µM; in the test with UO-31 renal, 0.576 µM. For the same compound, the TGI in the test with A498 renal is 2.51 µM; with ACHN renal, 14.1 µM; in the test on HOP-92 NSCLC it was 11.6 µM; in the test with HT29 colon it was 1.49 µM; in the test on K-562 leukemia it was 10.6 µM; in the test on NCI-H226 lung it was 19.3 µM. Moreover, the TGI in the test with NCI-H23 lung was 14 µM; with NCI-H522 lung, 3.16 µM; with UACC-257 melanoma, 17.7 µM; in the test on UO-31 renal it was 11.9 µM.

In the case of `Cc1ccc(Cl)cc1Nc1nc(C(F)(F)F)ccc1C(=O)N/N=C/c1cccnc1`, the GI50 in the test on A498 renal was 2.95 µM; in the test with ACHN renal, 3.63 µM; in the test on HOP-92 NSCLC, 1.55 µM; in the test on HT29 colon it was 5.73 µM; in the test with K-562 leukemia, 1.71 µM; in the test on NCI-H226 lung, 2.38 µM. The GI50 is 5.6 µM in the test on NCI-H23 lung, 6.64 µM with NCI-H522 lung, 3.15 µM in the test on UACC-257 melanoma and 3.51 µM in the test on UO-31 renal. Moreover, the TGI with A498 renal is 11.7 µM; in the test with ACHN renal it was 13.1 µM; in the test with HOP-92 NSCLC, 7.37 µM; in the test with HT29 colon it was 20.7 µM; in the test on K-562 leukemia it was > 39 µM; with NCI-H226 lung, 12.4 µM. For the same compound, the TGI in the test on NCI-H23 lung was 20.3 µM; in the test on NCI-H522 lung, 22.5 µM; in the test with UACC-257 melanoma, 10.1 µM; in the test with UO-31 renal it was 16.2 µM.

Take `O=[N+]([O-])c1ccc(C2CC(c3ccccc3Cl)=Nc3ccccc3S2)cc1` (stereo not given): the TGI in the test with A498 renal amounted to 17.4 µM; in the test with ACHN renal, 42.9 µM; in the test on HOP-92 NSCLC it was 29.5 µM; with HT29 colon, 45.9 µM; with K-562 leukemia, 6.35 µM; in the test with NCI-H226 lung, 27.9 µM. The TGI in the test on NCI-H23 lung is 10.8 µM; in the test with NCI-H522 lung, 8.16 µM; with UACC-257 melanoma, 35.5 µM; in the test with UO-31 renal it was 36.8 µM.

As for `Cc1cc(Cl)cc2c(N=Nc3ccc(S(N)(=O)=O)cc3)c(O)[nH]c12`, the GI50 with A498 renal, in the test with ACHN renal, with HOP-92 NSCLC, in the test with HT29 colon, with K-562 leukemia and in the test with NCI-H226 lung was > 25 µM throughout. Besides, the GI50 in the test on NCI-H23 lung, in the test with NCI-H522 lung, in the test with UACC-257 melanoma and in the test with UO-31 renal was > 25 µM in each case. The TGI in the test on A498 renal, in the test with ACHN renal, in the test on HOP-92 NSCLC, with HT29 colon, in the test with K-562 leukemia and in the test with NCI-H226 lung was > 25 µM throughout. Further, the TGI in the test on NCI-H23 lung, with NCI-H522 lung, in the test on UACC-257 melanoma and in the test with UO-31 renal was > 25 µM each time.

With `N#Cc1c(NC(=O)NCc2ccccc2)sc2c1CCCC2`, the GI50 is 0.236 µM in the test with A498 renal; 0.677 µM with ACHN renal; 1.79 µM with HOP-92 NSCLC; 0.392 µM in the test with HT29 colon; 0.43 µM in the test on K-562 leukemia; 1.3 µM in the test with NCI-H226 lung. Also, the GI50 with NCI-H23 lung was 1.18 µM; with NCI-H522 lung it was 0.559 µM; in the test with UACC-257 melanoma, > 71 µM; in the test on UO-31 renal it was 0.74 µM. For the same compound, the TGI with A498 renal is 1.13 µM; in the test with ACHN renal, > 100 µM; with HOP-92 NSCLC, 71 µM; in the test with HT29 colon, > 100 µM; in the test on K-562 leukemia, > 100 µM; with NCI-H226 lung it was > 41.3 µM. In addition, the TGI in the test with NCI-H23 lung is > 26.3 µM; in the test on NCI-H522 lung, > 100 µM; in the test on UACC-257 melanoma, > 100 µM; in the test on UO-31 renal, > 100 µM.

`COc1ccc(OC(C)=O)c2c1CCC=CC2=O`: the TGI with A498 renal came to 37.5 µM; with ACHN renal it was 32 µM; in the test on HOP-92 NSCLC, 7.49 µM; in the test with HT29 colon, 33.7 µM; in the test on K-562 leukemia, 18.6 µM; in the test on NCI-H226 lung, 33.7 µM. Further, the TGI with NCI-H23 lung was 32.8 µM; with NCI-H522 lung it was 3.8 µM; with UACC-257 melanoma, 31.8 µM; with UO-31 renal, 30.9 µM.
